# Results reported in patent US8022035B2, “Y4 selective receptor agonists for therapeutic interventions” (7TM Pharma A/S, priority 2005, dated 2011).
# Like-named read-outs stand apart in the source and are kept apart here. Where no end group is shown, it is not given here.
# What was measured:
# Assay type in all cases: cell-based
# human Y1 receptor = target: T1, human Y1 receptor (Homo sapiens, UniProt P25929); test: Human Y1 receptor potency assay (inositol phosphate turnover)
# T1 construct: expressed in transfected cells; host or cells: COS-7 cells
# T1 sequence (P25929 1-384): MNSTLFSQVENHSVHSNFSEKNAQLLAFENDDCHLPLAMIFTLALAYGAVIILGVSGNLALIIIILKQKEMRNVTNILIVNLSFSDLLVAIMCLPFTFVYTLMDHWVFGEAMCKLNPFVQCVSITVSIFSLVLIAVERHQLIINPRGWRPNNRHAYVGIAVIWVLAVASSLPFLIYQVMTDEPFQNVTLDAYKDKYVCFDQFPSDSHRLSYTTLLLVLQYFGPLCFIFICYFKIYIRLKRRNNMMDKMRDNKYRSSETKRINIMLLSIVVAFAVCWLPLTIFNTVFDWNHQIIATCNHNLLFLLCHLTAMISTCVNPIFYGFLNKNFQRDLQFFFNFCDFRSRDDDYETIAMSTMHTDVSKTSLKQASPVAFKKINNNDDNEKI
# Procedure: Cells are washed twice in buffer, 20 mM HEPES, pH 7.4, supplemented with 140 mM NaCl, 5 mM KCl, 1 mM MgSO4, 1 mM CaCl2, 10 mM glucose, 0.05% (w/v) bovine serum; and are incubated in 0.5 ml buffer supplemented with 10 mM LiCl at 37 C for 30 min. After stimulation with various concentrations of peptide for 45 min at 37 C, cells are extracted with 10% ice-cold perchloric acid followed by incubation on ice for 30 min. The resulting supernatants are neutralized with KOH in HEPES buffer, and the generated [3H]-inositol phosphate are purified on Bio-Rad AG 1-X8 anion-exchange resin and counted in a beta counter. Determinations are made in duplicates. EC50 values were calculated using a standard pharmacological data handling software, Prism 3.0 (graphpad Sofware, San Diego, USA).
# Protocol as for the Y2 potency assay, except that human Y1-transformed COS-7 cells are used.
# human Y4 receptor = target: T2, human Y4 receptor (Homo sapiens, UniProt P50391); test: Human Y4 receptor potency assay (inositol phosphate turnover)
# T2 construct: expressed in transfected cells; host or cells: COS-7 cells
# Procedure: After stimulation with various concentrations of peptide for 45 min at 37 C, cells are extracted with 10% ice-cold perchloric acid followed by incubation on ice for 30 min. The resulting supernatants are neutralized with KOH in HEPES buffer, and the generated [3H]-inositol phosphate are purified on Bio-Rad AG 1-X8 anion-exchange resin and counted in a beta counter. Determinations are made in duplicates. […] Protocol as for the Y2 potency assay, except that human Y4-transformed COS-7 cells are used.
# human Y2 receptor = target: T3, human Y2 receptor (Homo sapiens, UniProt P49146); test: Human Y2 receptor potency assay (inositol phosphate turnover)
# T3 construct: expressed in transfected cells; host or cells: COS-7 cells, transient transfection, co-transfected with Gqi5
# T3 sequence (P49146 1-381): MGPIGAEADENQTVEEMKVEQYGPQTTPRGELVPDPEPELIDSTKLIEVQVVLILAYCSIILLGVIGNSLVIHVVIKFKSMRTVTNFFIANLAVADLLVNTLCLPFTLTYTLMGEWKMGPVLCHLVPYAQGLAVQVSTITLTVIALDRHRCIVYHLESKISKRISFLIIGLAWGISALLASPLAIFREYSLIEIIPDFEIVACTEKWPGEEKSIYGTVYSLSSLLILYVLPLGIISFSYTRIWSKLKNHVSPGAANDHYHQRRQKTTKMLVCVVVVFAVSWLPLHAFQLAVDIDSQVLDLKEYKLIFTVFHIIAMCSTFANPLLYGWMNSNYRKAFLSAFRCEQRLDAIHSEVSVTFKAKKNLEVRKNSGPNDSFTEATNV
# Procedure: Potency of the test compounds on the human Y2 receptor is determined by performing dose-response experiments in COS-7 cells transiently transfected with the human Y2 receptor as well as a promiscuous G protein, Gqi5 which ensures that the Y2 receptor couples through a Gq pathway leading to an increase in inositol phosphate turnover. […] After stimulation with various concentrations of peptide for 45 min at 37 C, cells are extracted with 10% ice-cold perchloric acid followed by incubation on ice for 30 min. […] Determinations are made in duplicates.
# [1] = human Y1-transformed COS-7 cells, [3H]-inositol phosphate turnover, peptide 45 min at 37 C, read-out: hY1 EC50
# [2] = COS-7 cells transiently transfected with human Y2 receptor and Gqi5, [3H]-inositol phosphate turnover, peptide 45 min at 37 C, read-out: hY2 EC50
# T2 sequence (P50391 whole entry): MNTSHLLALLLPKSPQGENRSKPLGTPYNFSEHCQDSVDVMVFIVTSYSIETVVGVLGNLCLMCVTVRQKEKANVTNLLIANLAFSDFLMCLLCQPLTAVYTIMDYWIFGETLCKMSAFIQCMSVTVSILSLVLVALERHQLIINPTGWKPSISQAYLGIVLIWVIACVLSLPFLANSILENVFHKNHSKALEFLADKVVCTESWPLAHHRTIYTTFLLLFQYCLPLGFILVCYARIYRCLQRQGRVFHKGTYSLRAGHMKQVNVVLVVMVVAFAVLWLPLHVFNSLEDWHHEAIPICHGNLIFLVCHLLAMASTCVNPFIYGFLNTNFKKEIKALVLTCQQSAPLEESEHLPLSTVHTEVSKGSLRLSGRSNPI
EC50 (human Y1 receptor; [1]),EC50 (human Y2 receptor; [2]),Compound,also measured
–,–,"PLEPVYPGENATPEQLAQYAADLRRYINTLTRPRY-NH2 [[Glu10;Leu17;Thr-30]-PP(2-36), [Glu10, Leu17, Thr30]PP2-36]",EC50 (human Y1 receptor): > 1000 nM; EC50 (human Y4 receptor): 1.07 nM; EC50 (human Y2 receptor): > 1000 nM
> 1000 nM,> 1000 nM,"PLEPVYPGDNATPEQMAQYAADLRRYINTLTRPRY-NH2 [[Thr-30]-PP(2-36), [Thr30]PP2-36]","EC50 (human Y4 receptor; human Y4-transformed COS-7 cells, [3H]-inositol phosphate turnover, peptide 45 min at 37 C, read-out: hY4 EC50): 1.07 nM"
> 1000 nM,> 1000 nM,"PLEPVYPGDNATPEQMAQYAADLRRYINALTRPRY-NH2 [[Ala-30]-PP(2-36), [Ala30]PP2-36]",–
–,> 1000 nM,"CCCC[C@H](NC(=O)[C@H](CCC(N)=O)NC(=O)[C@H](CCC(=O)O)NC(=O)[C@@H]1CCCN1C(=O)[C@@H](NC(=O)[C@H](C)NC(=O)[C@H](CC(N)=O)NC(=O)[C@H](CC(=O)O)NC(=O)CNC(=O)[C@@H]1CCCN1C(=O)[C@H](Cc1ccc(O)cc1)NC(=O)[C@@H](NC(=O)[C@@H]1CCCN1C(=O)[C@H](CCC(=O)O)NC(=O)[C@H](CC(C)C)NC(=O)[C@@H]1CCCN1)C(C)C)[C@@H](C)O)C(=O)N[C@@H](C)C(=O)N[C@@H](CCC(N)=O)C(=O)N[C@@H](Cc1ccc(O)cc1)C(=O)N[C@@H](C)C(=O)N[C@@H](C)C(=O)N[C@@H](CC(=O)O)C(=O)N[C@@H](CC(C)C)C(=O)N[C@@H](CCCNC(=N)N)C(=O)N[C@@H](CCCNC(=N)N)C(=O)N[C@@H](Cc1ccc(O)cc1)C(=O)N[C@H](C(=O)N[C@@H](CC(N)=O)C(=O)N[C@@H](CCCC)C(=O)N[C@@H](CC(C)C)C(=O)N[C@H](C(=O)N[C@@H](CCCNC(=N)N)C(=O)N1CCC[C@H]1C(=O)N[C@@H](CCCNC(=N)N)C(=O)N[C@@H](Cc1ccc(O)cc1)C(N)=O)[C@@H](C)O)[C@@H](C)CC [[Nle17,Nle30]-PP(2-36), [Nle17, Nle30]PP2-36]",–
> 1000 nM,> 1000 nM,"PLEPVYPGDNATPEQMAQYAADLRRYINNLTRPRY-NH2 [[Asn-30]-PP(2-36), [Asn30]PP2-36]",–
> 1000 nM,> 1000 nM,"PLEPVYPGDNATPEQMAQYAADLRRYINQLTRPRY-NH2 [[Gln-30]-PP(2-36), [Gln30]PP2-36]",–
–,–,"CC[C@H](C)[C@H](NC(=O)[C@H](Cc1ccc(O)cc1)NC(=O)[C@H](CCCNC(=N)N)NC(=O)[C@H](CCCNC(=N)N)NC(=O)[C@H](CC(C)C)NC(=O)[C@H](CC(=O)O)NC(=O)[C@H](C)NC(=O)[C@H](C)NC(=O)[C@H](Cc1ccc(O)cc1)NC(=O)[C@H](CCC(N)=O)NC(=O)[C@H](C)NC(=O)[C@H](CCSC)NC(=O)[C@H](CCC(N)=O)NC(=O)[C@H](CCC(=O)O)NC(=O)[C@@H]1CCCN1C(=O)[C@@H](NC(=O)[C@H](C)NC(=O)[C@H](CC(N)=O)NC(=O)[C@H](CCC(=O)O)NC(=O)CNC(=O)[C@@H]1CCCN1C(=O)[C@H](Cc1ccc(O)cc1)NC(=O)[C@@H](NC(=O)[C@@H]1CCCN1C(=O)[C@H](CCC(=O)O)NC(=O)[C@H](CC(C)C)NC(=O)[C@@H]1CCCN1)C(C)C)[C@@H](C)O)C(=O)N[C@@H](CC(N)=O)C(=O)N[C@@H](CCSC)C(=O)N[C@@H](CC(C)C)C(=O)N[C@H](C(=O)N[C@@H](CCCNC(=N)N)C(=O)N1CCC[C@H]1C(=O)N[C@@H](CCCNC(=N)N)C(=O)N[C@@H](Cc1ccc(O)cc1)C(N)=O)[C@@H](C)O [[Glu-10]-PP(2-36), [Glu10]PP2-36]",EC50 (human Y2 receptor): > 1000 nM
